According to US11919901B2 (Syndax Pharmaceuticals, Inc., priority 2021, dated 2024):
Like-named read-outs stand apart in the source and are kept apart here.

System: MV4-11 cells
Experiment: Cell proliferation assay MV4;11 (CellTiter-Glo, 72 hours)
Assay type: cell-based
Conditions: Homo sapiens, read-out: MV4
Method in brief: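 Luminescent CellTiter-Glo readout after 72 h culture, 37 °C, 5% CO2, expressed relative to vehicle-treated wells, with maximal inhibition taken at the highest dose. MLL-rearranged MV4-11 leukemia cells; final compound range 0.632 to 2000 nM in eight steps.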

[1] = MV4;11 leukemia cell line, 72 hours, 11 IC50

SMILES	IC50 (MV4-11, 72 h, 11 IC50 (nM))	IC50 [1]
CC(C)N(CC(F)F)C(=O)c1cc(F)ccc1Oc1cncnc1N1CC2(CCN(C[C@@H]3CC[C@@H](NS(=O)(=O)NCC(F)F)CO3)CC2)C1 [Example 235, N-(2,2-Difluoroethyl)-2-((4-(7-(((2S,5R)-5-((N-(2,2-difluoroethyl)sulfamoyl)amino)tetrahydro-2H-pyran-2-yl)methyl)-2,7-diazaspiro[3.5]nonan-2-yl)pyrimidin-5-yl)oxy)-5-fluoro-N-isopropylbenzamide]	< 100 nM	
CC(C)N(CC(F)F)C(=O)c1cc(F)ccc1Oc1cncnc1N1CC2(CCN(C[C@@H]3CC[C@@H](NS(=O)(=O)N(C)CCO)CO3)CC2)C1 [Example 239, N-(2,2-difluoroethyl)-5-fluoro-2-((4-(7-(((2S,5R)-5-((N-(2-hydroxyethyl)-N-methylsulfamoyl)amino)tetrahydro-2H-pyran-2-yl)methyl)-2,7-diazaspiro[3.5]nonan-2-yl)pyrimidin-5-yl)oxy)-N-isopropylbenzamide]		< 100 nM
CC(C)N(CC(F)F)C(=O)c1cc(F)ccc1Oc1cncnc1N1CC2(CCN(C[C@@H]3CC[C@@H](NS(N)(=O)=O)CO3)CC2)C1 [Example 240, N-(2,2-Difluoroethyl)-5-fluoro-N-isopropyl-2-((4-(7-(((2S,5R)-5-(sulfamoylamino)tetrahydro-2H-pyran-2-yl)methyl)-2,7-diazaspiro[3.5]nonan-2-yl)pyrimidin-5-yl)oxy)benzamide]		< 100 nM
CCS(=O)(=O)N[C@@H]1CC[C@@H](CN2CCC3(CC2)CN(c2ncncc2Oc2ccc(F)cc2C(=O)N(CCC(F)F)C(C)C)C3)OC1 [Example 242, N-(3,3-Difluoropropyl)-2-((4-(7-(((2S,5R)-5-(ethylsulfonamido)tetrahydro-2H-pyran-2-yl)methyl)-2,7-diazaspiro[3.5]nonan-2-yl)pyrimidin-5-yl)oxy)-5-fluoro-N-isopropylbenzamide]		< 100 nM
CC(C)N(C(=O)c1cc(F)ccc1Oc1cncnc1N1CC2(CCN(C[C@@H]3CC[C@@H](NS(=O)(=O)C4CC4)CO3)CC2)C1)C1COC1 [Example 247, 2-((4-(7-(((2S,5R)-5-(Cyclopropanesulfonamido)tetrahydro-2H-pyran-2-yl)methyl)-2,7-diazaspiro[3.5]nonan-2-yl)pyrimidin-5-yl)oxy)-5-fluoro-N-isopropyl-N-(oxetan-3-yl)benzamide]		< 100 nM
CC(C)N(C(=O)c1cc(F)ccc1Oc1cncnc1N1CC2(CCN(C[C@@H]3CC[C@@H](NS(=O)(=O)N4CCC4)CO3)CC2)C1)C1COC1 [Example 248, 2-((4-(7-(((2S,5R)-5-(Azetidine-1-sulfonamido)tetrahydro-2H-pyran-2-yl)methyl)-2,7-diazaspiro[3.5]nonan-2-yl)pyrimidin-5-yl)oxy)-5-fluoro-N-isopropyl-N-(oxetan-3-yl)benzamide]		< 100 nM
CC(C)N(C(=O)c1cc(F)ccc1Oc1cncnc1N1CC2(CCN(C[C@@H]3CC[C@@H](NS(=O)(=O)N(C)C)CO3)CC2)C1)C1COC1 [Example 249, 2-((4-(7-(((2S,5R)-5-((N,N-Dimethylsulfamoyl)amino)tetrahydro-2H-pyran-2-yl)methyl)-2,7-diazaspiro[3.5]nonan-2-yl)pyrimidin-5-yl)oxy)-5-fluoro-N-isopropyl-N-(oxetan-3-yl)benzamide]		< 100 nM
CCS(=O)(=O)N[C@@H]1CC[C@@H](CN2CCC3(CC2)CN(c2ncncc2Oc2ccc(F)cc2C(=O)N(C(C)C)C2CCOCC2)C3)OC1 [Example 250, 2-((4-(7-(((2S,5R)-5-(Ethylsulfonamido)tetrahydro-2H-pyran-2-yl)methyl)-2,7-diazaspiro[3.5]nonan-2-yl)pyrimidin-5-yl)oxy)-5-fluoro-N-isopropyl-N-(tetrahydro-2H-pyran-4-yl)benzamide]		< 100 nM
